Values after ≈ are worked out from the molar mass of the structure shown. Active and inactive are the calls of the source. The calls are words filed in the database; no cut-off is given here.
Key:
[1] = Toxicity in normal diet fed 12 week old ApoE KO mouse assessed as induction of cytoplasmic vacuolization at 1 mg/kg, ip treated for 4 weeks (once every 2 days for first 2 weeks and then every day for third and the fourth weeks); type: organism-based; details: in vivo
[2] = Toxicity in normal diet fed 12 week old ApoE KO mouse assessed as effect on behavior at 1 mg/kg, ip treated for 4 weeks (once every 2 days for first 2 weeks and then every day for third and the fourth weeks); type: organism-based; details: in vivo
[3] = Solubility in water; type: physicochemical
Mus musculus [4] = species on record: Mus musculus; test: Effect on lipid composition in ApoE KO mouse assessed as effect on HDL-cholesterol level; type: functional, organism-based
Mus musculus [5] = species on record: Mus musculus; test: Effect on lipid composition in ApoE KO mouse assessed as effect on total cholesterol level; type: functional, organism-based
Mus musculus [6] = species on record: Mus musculus; test: Effect on lipid composition in ApoE KO mouse assessed as effect on triglycerides level; type: functional, organism-based
Mus musculus [7] = test: Reduction in size of fatty streaks in aortic root of normal diet fed 12 week old ApoE KO mouse at 1 mg/kg, ip treated for 4 weeks (once every 2 days for first 2 weeks and then every day for third and the fourth weeks) by Oil Red O staining based assay relative to control; type: functional; parameters: scale not given: the % may be the effect or the level left
[8] = Toxicity in normal diet fed 12 week old ApoE KO mouse assessed as induction of bleeding at 1 mg/kg, ip treated for 4 weeks (once every 2 days for first 2 weeks and then every day for third and the fourth weeks); type: organism-based; details: in vivo
[9] = Toxicity in normal diet fed 12 week old ApoE KO mouse assessed as effect on body weight at 1 mg/kg, ip treated for 4 weeks (once every 2 days for first 2 weeks and then every day for third and the fourth weeks); type: organism-based; details: in vivo
[10] = Toxicity in normal diet fed 12 week old ApoE KO mouse assessed as induction of leukocyte infiltration at 1 mg/kg, ip treated for 4 weeks (once every 2 days for first 2 weeks and then every day for third and the fourth weeks); type: organism-based; details: in vivo
Mus musculus [11] = species on record: Mus musculus; test: Effect on lipid composition in ApoE KO mouse assessed as increase in LDL cholesterol relative to control; type: functional
[12] = target: T1, Sialidase-3 (Homo sapiens) (UniProt Q9UQ49); details: 1 mM
T1 sequence (whole entry): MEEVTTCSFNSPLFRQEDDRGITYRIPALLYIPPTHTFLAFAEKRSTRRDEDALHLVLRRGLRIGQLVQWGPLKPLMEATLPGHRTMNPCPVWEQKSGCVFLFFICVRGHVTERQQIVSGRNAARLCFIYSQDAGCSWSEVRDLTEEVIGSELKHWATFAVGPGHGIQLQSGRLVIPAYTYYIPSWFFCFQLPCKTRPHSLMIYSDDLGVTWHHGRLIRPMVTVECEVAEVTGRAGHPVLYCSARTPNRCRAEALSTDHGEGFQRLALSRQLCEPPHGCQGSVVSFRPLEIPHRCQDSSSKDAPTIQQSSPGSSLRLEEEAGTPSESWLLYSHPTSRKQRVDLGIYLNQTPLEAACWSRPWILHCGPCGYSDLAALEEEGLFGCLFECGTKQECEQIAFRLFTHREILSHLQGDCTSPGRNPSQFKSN

[13] = Toxicity in normal diet fed 16 week old ApoE KO mouse assessed as induction of bleeding at 30 mg/kg, ip treated for 2 weeks (once every 2 days for first week and then every day for second week) by Oil Red O staining based assay relative to control; type: organism-based; details: in vivo
[14] = Toxicity in normal diet fed 12 week old ApoE KO mouse assessed as induction of cytoplasmic vacuolization at 30 mg/kg, ip treated for 4 weeks (once every 2 days for first 2 weeks and then every day for third and the fourth weeks); type: organism-based; details: in vivo
[15] = Toxicity in normal diet fed 12 week old ApoE KO mouse assessed as effect on body weight at 30 mg/kg, ip treated for 4 weeks (once every 2 days for first 2 weeks and then every day for third and the fourth weeks); type: organism-based; details: in vivo
[16] = Toxicity in normal diet fed 16 week old ApoE KO mouse assessed as effect on behavior at 30 mg/kg, ip treated for 2 weeks (once every 2 days for first week and then every day for second week) by Oil Red O staining based assay relative to control; type: organism-based; details: in vivo
[17] = Toxicity in normal diet fed 12 week old ApoE KO mouse assessed as induction of bleeding at 30 mg/kg, ip treated for 4 weeks (once every 2 days for first 2 weeks and then every day for third and the fourth weeks); type: organism-based; details: in vivo
Mus musculus [18] = test: Inhibition of neuraminidase-1 activity in kidney of wild type C57BI6 mouse at 30 mg/kg, ip dosed for 2 consecutive days and measured 17 hrs post last dose by X-Neu5Ac substrate based histochemical assay relative to control; type: functional
[19] = Toxicity in normal diet fed 16 week old ApoE KO mouse assessed as effect on body weight at 30 mg/kg, ip treated for 2 weeks (once every 2 days for first week and then every day for second week) by Oil Red O staining based assay relative to control; type: organism-based; details: in vivo
Mus musculus [20] = test: Inhibition of neuraminidase-1 activity in normal diet fed ApoE KO mouse at 30 mg/kg, ip treated for 2 weeks (once every 2 days for first week and then every day for second week) by X-Neu5Ac substrate based histochemical assay relative to control; type: functional
[21] = Toxicity in normal diet fed 16 week old ApoE KO mouse assessed as induction of leukocyte infiltration at 30 mg/kg, ip treated for 2 weeks (once every 2 days for first week and then every day for second week) by Oil Red O staining based assay relative to control; type: organism-based; details: in vivo
Mus musculus [22] = test: Reduction in size of fatty streaks in aortic root of normal diet fed 16 week old ApoE KO mouse at 30 mg/kg, ip treated for 2 weeks (once every 2 days for first week and then every day for second week) by Oil Red O staining based assay relative to control; type: functional; parameters: scale not given: the % may be the effect or the level left
[23] = Toxicity in normal diet fed 16 week old ApoE KO mouse assessed as induction of cytoplasmic vacuolation at 30 mg/kg, ip treated for 2 weeks (once every 2 days for first week and then every day for second week) by Oil Red O staining based assay relative to control; type: organism-based; details: in vivo
Mus musculus [24] = test: Reduction in size of fatty streaks in aortic root of normal diet fed 12 week old ApoE KO mouse at 30 mg/kg, ip treated for 4 weeks (once every 2 days for first 2 weeks and then every day for third and the fourth weeks) by Oil Red O staining based assay relative to control; type: functional; parameters: scale not given: the % may be the effect or the level left
[25] = Toxicity in normal diet fed 12 week old ApoE KO mouse assessed as induction of leukocyte infiltration at 30 mg/kg, ip treated for 4 weeks (once every 2 days for first 2 weeks and then every day for third and the fourth weeks); type: organism-based; details: in vivo
[26] = Toxicity in normal diet fed 12 week old ApoE KO mouse assessed as effect on behavior at 30 mg/kg, ip treated for 4 weeks (once every 2 days for first 2 weeks and then every day for third and the fourth weeks); type: organism-based; details: in vivo
Mus musculus [27] = test: Inhibition of neuraminidase-3 activity in spleen of wild type C57BI6 mouse at 30 mg/kg, ip dosed for 2 consecutive days and measured 24 hrs post last dose by X-Neu5Ac substrate based histochemical assay relative to control; type: functional
Mus musculus [28] = test: Inhibition of neuraminidase-4 activity in spleen of wild type C57BI6 mouse at 30 mg/kg, ip dosed for 2 consecutive days and measured 17 hrs post last dose by X-Neu5Ac substrate based histochemical assay relative to control; type: functional

Structure (SMILES) | Activity [1] | Activity [2] | Activity (Mus musculus [4]) | Activity (Mus musculus [5]) | Activity (Mus musculus [6]) | Activity (Mus musculus [7]) | Activity [8] | Activity [9] | Activity [10] | Activity (Mus musculus [11]) | further results
CCCCC(=O)N[C@H]1[C@H]([C@H](O)[C@H](O)Cc2ccc(-c3ccccc3)cc2)OC(C(=O)OC)=C[C@@H]1O | Non-Toxic | Non-Toxic | inactive | inactive | inactive | 25 - 50% | Non-Toxic | Non-Toxic | Non-Toxic | 50% | solubility ([3]; water, read-out: solubility): ≥ 10000 µg/mL
CC(=O)N[C@H]1[C@H]([C@H](O)[C@H](O)Cn2cc(-c3ccc(-c4ccccc4)cc3)nn2)OC(C(=O)O)=C[C@@H]1NC(=N)N | – | – | – | – | – | Active | – | – | – | – | –
CCCCC(=O)N[C@H]1[C@H]([C@H](O)[C@H](O)Cc2ccc(-c3ccccc3)cc2)OC(C(=O)O)=C[C@@H]1O | – | – | – | – | – | Active | – | – | – | – | –
CC(=O)N[C@H]1[C@H]([C@H](O)[C@H](O)CO)OC(C(=O)O)=C[C@@H]1O | – | – | – | – | – | – | – | – | – | – | inhibition [12]: Active
CCCCC(=O)NC[C@@H](O)[C@@H](O)[C@@H]1OC(C(=O)OC)=C[C@H](O)[C@H]1NC(C)=O | – | – | inactive | inactive | inactive | – | – | – | – | 50% | Activity [13]: Non-Toxic; Activity [14]: Non-Toxic; Activity [15]: Non-Toxic; solubility ([3]; water, read-out: solubility): ≥ 1000 µg/mL; Activity [16]: Non-Toxic; Activity [17]: Non-Toxic; inhibition in vivo at 30 mg/kg (Mus musculus [18]): 90%; Activity [19]: Non-Toxic; inhibition in vivo at 30 mg/kg (Mus musculus [20]): 70 to 80%; Activity [21]: Non-Toxic; Activity (Mus musculus [22]): 25%; Activity [23]: Non-Toxic; Activity (Mus musculus [24]): 25 - 50%; Activity [25]: Non-Toxic; Activity [26]: Non-Toxic
COC(=O)C1=C[C@H](O)[C@@H](NC(C)=O)[C@H]([C@H](O)[C@H](O)Cn2cc(-c3ccc(-c4ccccc4)cc3)nn2)O1 | Non-Toxic | Non-Toxic | – | – | – | 25 - 50% | Non-Toxic | Non-Toxic | Non-Toxic | – | solubility ([3]; buffer): 100 µg/mL (≈ 197 µM); inhibition in vivo at 30 mg/kg (Mus musculus [27]): 70 to 80%; inhibition in vivo at 30 mg/kg (Mus musculus [28]): 70 to 80%
COC(=O)C1=C[C@H](NC(=N)N)[C@@H](NC(C)=O)[C@H]([C@H](O)[C@H](O)Cn2cc(-c3ccc(-c4ccccc4)cc3)nn2)O1 | Non-Toxic | Non-Toxic | inactive | inactive | inactive | 25 - 50% | Non-Toxic | Non-Toxic | Non-Toxic | 50% | –
CC(=O)N[C@H]1[C@H]([C@H](O)[C@H](O)Cn2cc(-c3ccc(-c4ccccc4)cc3)nn2)OC(C(=O)O)=C[C@@H]1O | – | – | – | – | – | Active | – | – | – | – | –
CCCCC(=O)NC[C@@H](O)[C@@H](O)[C@@H]1OC(C(=O)O)=C[C@H](O)[C@H]1NC(C)=O | – | – | – | – | – | – | – | – | – | – | Activity (Mus musculus [22]): Active; Activity (Mus musculus [24]): Active
